Tested on: Candida albicans CaCi-2
Assay: Primary assay: C. albicans CaCi-2 growth inhibition (Alamar Blue)
Type: cell-based
Conditions: Table 3; n = 3; 48 hours; tested up to 26 μM

| Structure (SMILES) | Growth Inhibition Activity, IC50 (μM), C. albicans (n = 3) CaCi-2 |
| --- | --- |
| CCCC(=O)N1C(=O)C2(CCCCC2)N(c2ccc(C)cc2)C1=S [compound 56604869] | inactive |
| Cc1ccc(N2C(=S)N(C(=O)Oc3ccccc3)C(=O)C23CCCCC3)cc1 [compound 56604875] | inactive |
| Cc1ccc(N2C(=S)N(S(C)(=O)=O)C(=O)C23CCCCC3)cc1 [compound 56604886] | inactive |
| Cc1ccc(N2C(=S)NC(=O)C23CCCCC3)cc1 [compound 56604892] | inactive |

Same assay, conditions: Table 3; n = 3; 48 hours; tested up to 26 μM; read-out: Growth Inhibition Activity, IC50 (μM), C. albicans (n = 3) CaCi-2

| Structure (SMILES) | IC50 |
| --- | --- |
| CCCOC(=O)N1C(=O)C2(CCCCC2)N(c2ccc(C)cc2)C1=S [compound 56604849] | 1.2 µM |
| Cc1ccc(N2C(=S)N(C(=O)OC(C)C)C(=O)C23CCCCC3)cc1 [compound 56604859] | 5.9 µM |

Same assay, conditions: Table 4; n = 3; 48 hours; tested up to 26 μM

| Structure (SMILES) | Growth Inhibition Activity, IC50 (μM), C. albicans (n = 3) CaCi-2 |
| --- | --- |
| CCOC(=O)N1C(=O)C2(CCCCC2)N(c2ccc(-c3ccccc3)cc2)C1=S [compound 56604882] | inactive |
| CCOC(=O)N1C(=O)C2(CCCCC2)N(C(C)C)C1=S [compound 56604896] | inactive |

Same assay, conditions: Table 4; n = 3; 48 hours; tested up to 26 μM; read-out: Growth Inhibition Activity, IC50 (μM), C. albicans (n = 3) CaCi-2

| Structure (SMILES) | IC50 |
| --- | --- |
| CCCc1ccc(N2C(=S)N(C(=O)OCC)C(=O)C23CCCCC3)cc1 [compound 56604858] | 6.9 µM |
| CCOC(=O)N1C(=O)C2(CCCCC2)N(Cc2ccccc2)C1=S [compound 56604878] | 3.8 µM |

Same assay, conditions: Table 5; n = 3; 48 hours; tested up to 26 μM

| Structure (SMILES) | Growth Inhibition Activity, IC50 (μM), C. albicans (n = 3) CaCi-2 |
| --- | --- |
| CCOC(=O)N1C(=O)C2(CCC2)N(c2ccc(C)cc2)C1=S [compound 56604894] | Inactive |

Tested on: Candida albicans CaCi-17
Assay: Primary assay: C. albicans CaCi-17 growth inhibition (Alamar Blue)
Type: cell-based
Conditions: Table 3; n = 3; 48 hours; tested up to 26 μM

| Structure (SMILES) | Growth Inhibition Activity, IC50 (μM), C. albicans (n = 3) CaCi-17 |
| --- | --- |
| CCCOC(=O)N1C(=O)C2(CCCCC2)N(c2ccc(C)cc2)C1=S [compound 56604849] | inactive |
| Cc1ccc(N2C(=S)N(C(=O)OC(C)C)C(=O)C23CCCCC3)cc1 [compound 56604859] | inactive |
| CCCC(=O)N1C(=O)C2(CCCCC2)N(c2ccc(C)cc2)C1=S [compound 56604869] | inactive |
| Cc1ccc(N2C(=S)N(C(=O)Oc3ccccc3)C(=O)C23CCCCC3)cc1 [compound 56604875] | inactive |
| Cc1ccc(N2C(=S)N(S(C)(=O)=O)C(=O)C23CCCCC3)cc1 [compound 56604886] | inactive |
| Cc1ccc(N2C(=S)NC(=O)C23CCCCC3)cc1 [compound 56604892] | inactive |

Same assay, conditions: Table 4; n = 3; 48 hours; tested up to 26 μM

| Structure (SMILES) | Growth Inhibition Activity, IC50 (μM), C. albicans (n = 3) CaCi-17 |
| --- | --- |
| CCCc1ccc(N2C(=S)N(C(=O)OCC)C(=O)C23CCCCC3)cc1 [compound 56604858] | inactive |
| CCOC(=O)N1C(=O)C2(CCCCC2)N(c2ccc(-c3ccccc3)cc2)C1=S [compound 56604882] | inactive |
| CCOC(=O)N1C(=O)C2(CCCCC2)N(C(C)C)C1=S [compound 56604896] | inactive |

Same assay, conditions: Table 4; n = 3; 48 hours; tested up to 26 μM; read-out: Growth Inhibition Activity, IC50 (μM), C. albicans (n = 3) CaCi-17

| Structure (SMILES) | IC50 |
| --- | --- |
| CCOC(=O)N1C(=O)C2(CCCCC2)N(Cc2ccccc2)C1=S [compound 56604878] | 22.8 µM |

Same assay, conditions: Table 5; n = 3; 48 hours; tested up to 26 μM

| Structure (SMILES) | Growth Inhibition Activity, IC50 (μM), C. albicans (n = 3) CaCi-17 |
| --- | --- |
| CCOC(=O)N1C(=O)C2(CCC2)N(c2ccc(C)cc2)C1=S [compound 56604894] | inactive |

Tested on: NIH-3T3 mammalian fibroblasts
Assay: Counterscreen mammalian cell toxicity assay (Alamar Blue)
Type: cell-based, murine
Conditions: Table 3; n = 1; 48 hours; tested up to 26 μM
Procedure: Quiescent murine fibroblasts were subjected to incubation with compounds of interest for 48 hours. Subsequent cell viability was determined via measuring Alamar Blue fluorescence.
Procedures • After overnight culture, pin compounds into wells at 100 nL/well using the CyBio CyBi-Well pinning instrument. • Return the plates to the tissue culture incubator and incubate the culture for an additional 48 hours at 37° C. under 5% CO2. • At the completion of this incubation, add Alamar Blue solution diluted 1:40 in PBS to each well (10 μL/well) to achieve a final dilution of 1:200. • Incubate the plates for an additional 2-3 hours at 37° C. under 5% CO2. • Read the Relative Fluorescence Intensity (RFU) of wells on a standard plate reader as a measure of relative cell growth. […] 4.4.

| Structure (SMILES) | Growth Inhibition Activity, IC50 (μM), 3T3 Fibroblasts (n = 1) |
| --- | --- |
| CCCOC(=O)N1C(=O)C2(CCCCC2)N(c2ccc(C)cc2)C1=S [compound 56604849] | Inactive |
| Cc1ccc(N2C(=S)N(C(=O)OC(C)C)C(=O)C23CCCCC3)cc1 [compound 56604859] | Inactive |
| Cc1ccc(N2C(=S)N(C(=O)Oc3ccccc3)C(=O)C23CCCCC3)cc1 [compound 56604875] | Inactive |
| Cc1ccc(N2C(=S)N(S(C)(=O)=O)C(=O)C23CCCCC3)cc1 [compound 56604886] | Inactive |
| Cc1ccc(N2C(=S)NC(=O)C23CCCCC3)cc1 [compound 56604892] | Inactive |

Same assay, conditions: Table 4; n = 1; 48 hours; tested up to 26 μM

| Structure (SMILES) | Growth Inhibition Activity, IC50 (μM), 3T3 Fibroblasts (n = 1) |
| --- | --- |
| CCCc1ccc(N2C(=S)N(C(=O)OCC)C(=O)C23CCCCC3)cc1 [compound 56604858] | Inactive |
| CCOC(=O)N1C(=O)C2(CCCCC2)N(Cc2ccccc2)C1=S [compound 56604878] | Inactive |
| CCOC(=O)N1C(=O)C2(CCCCC2)N(C(C)C)C1=S [compound 56604896] | Inactive |

Same assay, conditions: Table 5; n = 1; 48 hours; tested up to 26 μM

| Structure (SMILES) | Growth Inhibition Activity, IC50 (μM), 3T3 Fibroblasts (n = 1) |
| --- | --- |
| CCOC(=O)N1C(=O)C2(CCC2)N(c2ccc(C)cc2)C1=S [compound 56604894] | Inactive |

Same assay, conditions: read-out: Growth Inhibition Activity, IC50 (μM), 3T3 Fibroblasts (n = 1); Table 3; n = 1; 48 hours; tested up to 26 μM

| Structure (SMILES) | IC50 |
| --- | --- |
| CCCC(=O)N1C(=O)C2(CCCCC2)N(c2ccc(C)cc2)C1=S [compound 56604869] | 18.8 µM |

Same assay, conditions: read-out: Growth Inhibition Activity, IC50 (μM), 3T3 Fibroblasts (n = 1); Table 4; n = 1; 48 hours; tested up to 26 μM

| Structure (SMILES) | IC50 |
| --- | --- |
| CCOC(=O)N1C(=O)C2(CCCCC2)N(c2ccc(-c3ccccc3)cc2)C1=S [compound 56604882] | 9.8 µM |

Tested on: not listed separately
Assay: Solubility in PBS pH 7.4 with 1% DMSO
Conditions: Table 3; PBS pH 7.4 with 1% DMSO, 24 hours, room temperature
Procedure: Solubility was determined in phosphate buffered saline (PBS) pH 7.4 with 1% DMSO. Each compound was prepared in duplicate at 100 μM in both 100% DMSO and PBS with 1% DMSO. Compounds were allowed to equilibrate at room temperature with a 250 rpm orbital shake for 24 hours. After equilibration, samples were analyzed by UPLC-MS (Waters, Milford, Mass.) with compounds detected by SIR detection on a single quadrupole mass spectrometer. The DMSO samples were used to create a two-point calibration curve to which the response in PBS was fit.

| Structure (SMILES) | PBS Solubility |
| --- | --- |
| CCCOC(=O)N1C(=O)C2(CCCCC2)N(c2ccc(C)cc2)C1=S [compound 56604849] | <1.0 µM |
| Cc1ccc(N2C(=S)N(C(=O)Oc3ccccc3)C(=O)C23CCCCC3)cc1 [compound 56604875] | <1.0 µM |

Same assay, conditions: Table 4; PBS pH 7.4 with 1% DMSO, 24 hours, room temperature

| Structure (SMILES) | PBS Solubility |
| --- | --- |
| CCOC(=O)N1C(=O)C2(CCCCC2)N(Cc2ccccc2)C1=S [compound 56604878] | 7.2 µM |
| CCOC(=O)N1C(=O)C2(CCCCC2)N(c2ccc(-c3ccccc3)cc2)C1=S [compound 56604882] | <1.0 µM |
| CCOC(=O)N1C(=O)C2(CCCCC2)N(C(C)C)C1=S [compound 56604896] | 12 µM |

Same assay, conditions: pH 7.4

| Structure (SMILES) | PBS Solubility |
| --- | --- |
| CCCc1ccc(N2C(=S)N(C(=O)OCC)C(=O)C23CCCCC3)cc1 [compound 56604858] | <1.0 µM |
| Cc1ccc(N2C(=S)N(C(=O)OC(C)C)C(=O)C23CCCCC3)cc1 [compound 56604859] | <1.0 µM |
| CCCC(=O)N1C(=O)C2(CCCCC2)N(c2ccc(C)cc2)C1=S [compound 56604869] | 2.2 µM |
| Cc1ccc(N2C(=S)N(S(C)(=O)=O)C(=O)C23CCCCC3)cc1 [compound 56604886] | 29 µM |
| Cc1ccc(N2C(=S)NC(=O)C23CCCCC3)cc1 [compound 56604892] | 7.8 µM |
| CCOC(=O)N1C(=O)C2(CCC2)N(c2ccc(C)cc2)C1=S [compound 56604894] | 9.9 µM |
